Experimental findings from patent US9409880B2, “Modulators of TLR3/dsRNA complex and uses thereof” (The Regents of the University of Colorado, a body corporate, priority 2011, dated 2016) are described below.

One series addresses T1, Cyp1A2 (Homo sapiens, UniProt P05177).
T1 construct: tissue Apredica (testing lab); host or cells: microsomes (subcellular fractions)
T1 sequence (P05177 1-516): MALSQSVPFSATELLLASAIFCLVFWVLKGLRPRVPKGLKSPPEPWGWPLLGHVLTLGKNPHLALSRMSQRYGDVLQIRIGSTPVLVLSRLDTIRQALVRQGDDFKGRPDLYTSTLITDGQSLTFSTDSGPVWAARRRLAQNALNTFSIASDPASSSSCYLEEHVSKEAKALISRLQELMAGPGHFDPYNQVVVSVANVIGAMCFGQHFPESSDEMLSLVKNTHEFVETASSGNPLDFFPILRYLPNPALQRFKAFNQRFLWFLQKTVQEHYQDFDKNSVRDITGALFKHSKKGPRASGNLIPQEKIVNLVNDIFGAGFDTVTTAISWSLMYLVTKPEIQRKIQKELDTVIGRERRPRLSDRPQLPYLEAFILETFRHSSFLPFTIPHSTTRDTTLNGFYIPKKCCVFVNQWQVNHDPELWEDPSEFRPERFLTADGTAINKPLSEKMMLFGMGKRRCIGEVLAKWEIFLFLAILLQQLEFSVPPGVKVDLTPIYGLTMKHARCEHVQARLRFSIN
Kind of series: Cytochrome P450 toxicity assay. In kind it is in vitro ADME. Conditions: 25 μM and 50 μM; compared to known inhibitor aNF. The method, then: Test agent was incubated (two wells per condition) with microsomes at 37° C. Control incubations containing vehicle or reference inhibitors were run along side the test agents. The final assay contained test agent, probe substrates at the indicated concentration, 2 mM NADPH, 3 mM MgCl2 in 50 mM potassium phosphate buffer, pH 7.4. The final microsomal concentration was 0.5 mg/mL. The maximum solvent concentration in the final assay was ≦0.5% to minimize the inhibition of Cyps by solvent. NADPH was added last to start the assay. At the end of ten minutes incubation, the assay was stopped by the addition of acetonitrile containing internal standard, the samples were centrifuged, and the amount of probe metabolite in the supernatant was determined by LC/MS/MS. (Testing was done by Apredica, Watertown, Mass. using subcellular fractions)

For series [1], the system named is poly IC-induced impaired re-endothelialization. The series is described as follows: Vascular repair: re-endothelialization after carotid artery denudation. Format: in vivo, Mice. Conditions: 27 μg i.p. every 48 hours; 100 μg poly IC i.v.; Evan's blue staining. The method, then:
Mice were subjected to a 4 mm long electric denudation of the left common carotid artery. These C57B1/6J littermates were then treated with 100 μg of poly IC or vehicle (NaCl 0.9%) via i.v. injection every 48 hours for five days. Half of the mice in each group were also treated with 27 μg compound 4a or vehicle (DMSO) via i.p. injection every 48 hours. The mice were then sacrificed and aortic arch including both common carotid arteries excised. The remaining endothelial lesion was visualized using Evan's blue staining.

Molecules are shown by their SMILES.

Take `O=C(N[C@H](Cc1ccccc1)C(=O)O)c1sc2cc(F)ccc2c1Cl` [Compound 4a, (R)-2-(3-chloro-6-fluorobenzo[b]thiophene-2-carboxamido)-3-phenylpropanoic acid]: the “toxicity to Cyp1A2” value at Cyp1A2 is listed as “low toxicity”. Moreover, the “poly IC-induced impaired re-endothelialization” value in series [1] is on record as “significantly improves poly IC-induced impaired re-endothelialization”.
